Activity calls are given as the source filed them. Cut-off read from the data, not from the text of the source, for most assays here: actives have a measured Kd and inactives only a lower limit.
Experiments:
[1] = biological target: Receptor-interacting serine/threonine-protein kinase 2 (Homo sapiens, UniProt O43353)
[2] = biological target: Insulin-like growth factor 1 receptor (Homo sapiens, UniProt P08069)
[3] = biological target: Dual specificity protein kinase CLK1 (Homo sapiens, UniProt P49759)
[4] = biological target: Serine/threonine-protein kinase 16 (Homo sapiens, UniProt O75716)
Ephrin type-B receptor 2 = biological target: T1, Ephrin type-B receptor 2 (Homo sapiens, UniProt P29323)
T1 sequence (P29323 whole entry): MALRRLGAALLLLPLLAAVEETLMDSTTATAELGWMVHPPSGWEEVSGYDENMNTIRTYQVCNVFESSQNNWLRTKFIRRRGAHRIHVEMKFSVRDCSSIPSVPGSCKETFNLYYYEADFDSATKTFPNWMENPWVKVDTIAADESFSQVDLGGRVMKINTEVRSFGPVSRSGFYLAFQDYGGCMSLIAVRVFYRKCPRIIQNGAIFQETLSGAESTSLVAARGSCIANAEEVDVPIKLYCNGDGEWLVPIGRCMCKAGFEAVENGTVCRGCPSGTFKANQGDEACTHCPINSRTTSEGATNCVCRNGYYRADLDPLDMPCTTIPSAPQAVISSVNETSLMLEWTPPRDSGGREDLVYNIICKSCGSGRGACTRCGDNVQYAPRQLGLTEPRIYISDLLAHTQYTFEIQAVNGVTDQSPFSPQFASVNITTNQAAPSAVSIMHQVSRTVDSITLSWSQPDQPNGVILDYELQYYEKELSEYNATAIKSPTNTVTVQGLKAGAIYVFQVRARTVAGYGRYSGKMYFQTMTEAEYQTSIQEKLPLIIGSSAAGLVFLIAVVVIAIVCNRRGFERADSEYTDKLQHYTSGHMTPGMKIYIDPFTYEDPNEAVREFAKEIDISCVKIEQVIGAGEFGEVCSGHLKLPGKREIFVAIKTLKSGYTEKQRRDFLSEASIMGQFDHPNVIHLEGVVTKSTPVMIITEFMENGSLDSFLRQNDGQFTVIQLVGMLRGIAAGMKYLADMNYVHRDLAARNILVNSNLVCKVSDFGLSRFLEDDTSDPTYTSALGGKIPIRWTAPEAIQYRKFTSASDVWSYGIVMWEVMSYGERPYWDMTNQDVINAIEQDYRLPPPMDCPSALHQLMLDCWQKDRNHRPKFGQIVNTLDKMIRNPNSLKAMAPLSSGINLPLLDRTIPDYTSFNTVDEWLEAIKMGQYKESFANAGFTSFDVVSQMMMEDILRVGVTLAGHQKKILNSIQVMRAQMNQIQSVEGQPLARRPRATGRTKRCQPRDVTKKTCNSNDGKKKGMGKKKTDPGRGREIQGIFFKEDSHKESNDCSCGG

[5] = biological target: T2, Dual specificity mitogen-activated protein kinase kinase 5 (Homo sapiens, UniProt Q13163)
T2 sequence (Q13163 whole entry): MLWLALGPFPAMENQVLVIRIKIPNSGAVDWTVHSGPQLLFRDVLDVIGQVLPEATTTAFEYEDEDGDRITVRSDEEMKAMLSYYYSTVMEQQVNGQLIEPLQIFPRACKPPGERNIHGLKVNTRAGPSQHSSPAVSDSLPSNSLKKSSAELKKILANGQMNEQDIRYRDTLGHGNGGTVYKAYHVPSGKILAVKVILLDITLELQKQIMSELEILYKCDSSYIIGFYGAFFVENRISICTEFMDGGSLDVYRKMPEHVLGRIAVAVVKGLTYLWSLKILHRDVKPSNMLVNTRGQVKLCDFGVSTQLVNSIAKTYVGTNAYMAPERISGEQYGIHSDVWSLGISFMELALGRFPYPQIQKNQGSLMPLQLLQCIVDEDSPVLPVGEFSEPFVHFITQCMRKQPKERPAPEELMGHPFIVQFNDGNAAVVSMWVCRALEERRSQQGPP

[6] = biological target: Rho-associated protein kinase 2 (Homo sapiens, UniProt O75116)
[7] = biological target: T3, Inhibitor of nuclear factor kappa-B kinase subunit epsilon (Homo sapiens, UniProt Q14164)
T3 sequence (Q14164 whole entry): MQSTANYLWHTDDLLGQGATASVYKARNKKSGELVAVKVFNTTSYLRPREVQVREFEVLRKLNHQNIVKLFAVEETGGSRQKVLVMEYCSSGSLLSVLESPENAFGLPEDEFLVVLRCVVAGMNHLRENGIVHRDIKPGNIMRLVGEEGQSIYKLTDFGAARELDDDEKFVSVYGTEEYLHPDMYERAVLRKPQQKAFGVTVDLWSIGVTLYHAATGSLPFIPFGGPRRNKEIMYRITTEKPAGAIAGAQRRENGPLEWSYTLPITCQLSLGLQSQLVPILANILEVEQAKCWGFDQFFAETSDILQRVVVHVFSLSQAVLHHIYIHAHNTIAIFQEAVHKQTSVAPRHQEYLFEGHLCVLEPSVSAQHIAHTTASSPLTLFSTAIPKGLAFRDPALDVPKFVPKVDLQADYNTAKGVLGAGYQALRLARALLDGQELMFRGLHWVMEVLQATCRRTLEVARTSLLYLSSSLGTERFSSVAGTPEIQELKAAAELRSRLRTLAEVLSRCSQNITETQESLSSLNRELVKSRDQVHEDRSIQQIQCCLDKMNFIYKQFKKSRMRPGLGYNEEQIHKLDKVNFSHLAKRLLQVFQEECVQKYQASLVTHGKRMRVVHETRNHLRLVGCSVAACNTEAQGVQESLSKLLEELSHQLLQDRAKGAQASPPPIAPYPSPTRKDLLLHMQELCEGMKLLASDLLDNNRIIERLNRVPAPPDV

[8] = biological target: T4, Dual specificity mitogen-activated protein kinase kinase 3 (Homo sapiens, UniProt P46734)
T4 sequence (P46734 whole entry): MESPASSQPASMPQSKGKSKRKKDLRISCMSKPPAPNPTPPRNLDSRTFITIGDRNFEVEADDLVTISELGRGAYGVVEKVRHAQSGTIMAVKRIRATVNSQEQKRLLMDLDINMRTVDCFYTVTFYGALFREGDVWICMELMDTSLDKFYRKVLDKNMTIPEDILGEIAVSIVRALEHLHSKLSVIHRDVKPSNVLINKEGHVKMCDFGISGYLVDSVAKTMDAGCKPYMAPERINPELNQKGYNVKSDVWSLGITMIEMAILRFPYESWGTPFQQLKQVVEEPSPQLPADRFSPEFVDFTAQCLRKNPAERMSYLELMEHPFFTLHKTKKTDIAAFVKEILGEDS
Note: in the data inactive means no Kd found up to 30 µM.

Sequence of Receptor-interacting serine/threonine-protein kinase 2 (O43353 whole entry): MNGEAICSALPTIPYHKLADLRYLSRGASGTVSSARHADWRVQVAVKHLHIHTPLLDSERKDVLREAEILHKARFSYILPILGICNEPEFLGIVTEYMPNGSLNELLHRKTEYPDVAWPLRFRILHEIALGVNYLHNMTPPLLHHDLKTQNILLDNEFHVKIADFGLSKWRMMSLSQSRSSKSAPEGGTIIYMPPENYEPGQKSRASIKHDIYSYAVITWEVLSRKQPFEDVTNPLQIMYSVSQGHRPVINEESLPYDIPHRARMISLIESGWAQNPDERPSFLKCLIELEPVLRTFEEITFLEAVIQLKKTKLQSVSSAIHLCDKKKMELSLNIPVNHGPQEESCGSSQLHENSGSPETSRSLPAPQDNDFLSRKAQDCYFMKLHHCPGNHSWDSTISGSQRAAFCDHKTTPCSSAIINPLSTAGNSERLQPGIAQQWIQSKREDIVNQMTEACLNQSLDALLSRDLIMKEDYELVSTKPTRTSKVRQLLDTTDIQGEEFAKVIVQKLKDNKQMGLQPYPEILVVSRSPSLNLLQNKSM
Sequence of Insulin-like growth factor 1 receptor (P08069 31-736 limits assumed): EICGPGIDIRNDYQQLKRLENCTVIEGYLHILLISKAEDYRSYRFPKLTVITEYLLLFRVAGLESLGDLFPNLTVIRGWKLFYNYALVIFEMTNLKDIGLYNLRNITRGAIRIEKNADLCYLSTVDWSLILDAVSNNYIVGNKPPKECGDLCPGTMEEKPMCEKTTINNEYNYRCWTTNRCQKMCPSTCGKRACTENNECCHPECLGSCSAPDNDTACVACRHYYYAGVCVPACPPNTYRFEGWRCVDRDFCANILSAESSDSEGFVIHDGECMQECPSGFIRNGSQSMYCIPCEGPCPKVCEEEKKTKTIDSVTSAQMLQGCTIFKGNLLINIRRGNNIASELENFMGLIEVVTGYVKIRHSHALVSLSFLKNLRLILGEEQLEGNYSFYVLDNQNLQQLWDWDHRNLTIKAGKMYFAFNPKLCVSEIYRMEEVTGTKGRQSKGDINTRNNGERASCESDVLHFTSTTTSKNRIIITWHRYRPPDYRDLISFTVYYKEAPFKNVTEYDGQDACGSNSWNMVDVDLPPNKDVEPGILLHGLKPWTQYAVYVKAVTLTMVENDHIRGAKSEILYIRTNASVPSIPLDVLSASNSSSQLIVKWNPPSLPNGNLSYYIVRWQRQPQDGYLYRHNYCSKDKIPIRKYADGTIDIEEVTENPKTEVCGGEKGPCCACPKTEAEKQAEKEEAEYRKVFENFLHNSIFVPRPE
Sequence of Insulin-like growth factor 1 receptor (P08069 741-1367 limits assumed): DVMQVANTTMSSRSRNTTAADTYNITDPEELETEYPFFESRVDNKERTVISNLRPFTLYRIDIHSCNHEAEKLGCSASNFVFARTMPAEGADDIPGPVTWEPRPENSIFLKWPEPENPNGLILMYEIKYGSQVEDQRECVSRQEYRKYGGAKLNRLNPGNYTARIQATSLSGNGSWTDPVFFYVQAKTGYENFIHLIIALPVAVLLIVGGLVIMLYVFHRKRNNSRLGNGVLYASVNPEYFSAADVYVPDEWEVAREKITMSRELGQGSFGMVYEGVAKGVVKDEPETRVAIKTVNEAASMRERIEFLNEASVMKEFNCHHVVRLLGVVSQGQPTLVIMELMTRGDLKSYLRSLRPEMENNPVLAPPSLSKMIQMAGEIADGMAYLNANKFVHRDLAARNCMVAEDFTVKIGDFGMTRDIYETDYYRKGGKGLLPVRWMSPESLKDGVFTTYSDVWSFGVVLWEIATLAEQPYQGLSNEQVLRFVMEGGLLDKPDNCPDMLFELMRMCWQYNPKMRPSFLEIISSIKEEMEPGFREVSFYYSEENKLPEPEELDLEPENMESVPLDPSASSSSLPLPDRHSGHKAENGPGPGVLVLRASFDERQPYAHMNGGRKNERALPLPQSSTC
Sequence of Dual specificity protein kinase CLK1 (P49759 whole entry): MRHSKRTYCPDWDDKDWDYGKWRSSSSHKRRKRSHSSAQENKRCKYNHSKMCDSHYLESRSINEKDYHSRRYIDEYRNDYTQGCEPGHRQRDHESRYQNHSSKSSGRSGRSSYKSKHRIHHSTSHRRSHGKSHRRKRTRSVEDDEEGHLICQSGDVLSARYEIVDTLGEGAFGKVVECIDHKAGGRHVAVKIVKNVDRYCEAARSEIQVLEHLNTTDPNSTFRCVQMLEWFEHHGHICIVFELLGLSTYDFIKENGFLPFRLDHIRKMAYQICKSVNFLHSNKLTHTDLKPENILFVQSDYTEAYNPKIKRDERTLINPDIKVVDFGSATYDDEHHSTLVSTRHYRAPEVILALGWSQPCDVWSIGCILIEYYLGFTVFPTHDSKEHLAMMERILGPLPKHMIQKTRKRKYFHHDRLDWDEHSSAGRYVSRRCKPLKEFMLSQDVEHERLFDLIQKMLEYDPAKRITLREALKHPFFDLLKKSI
Sequence of Serine/threonine-protein kinase 16 (O75716 whole entry): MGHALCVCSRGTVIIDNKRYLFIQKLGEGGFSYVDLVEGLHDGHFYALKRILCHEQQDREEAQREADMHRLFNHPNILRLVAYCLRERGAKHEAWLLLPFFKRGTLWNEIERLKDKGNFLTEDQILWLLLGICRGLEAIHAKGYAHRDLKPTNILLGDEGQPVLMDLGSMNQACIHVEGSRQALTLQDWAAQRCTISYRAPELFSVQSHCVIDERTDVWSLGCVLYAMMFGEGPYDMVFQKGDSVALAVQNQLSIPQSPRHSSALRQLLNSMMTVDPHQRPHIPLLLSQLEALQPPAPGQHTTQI
Sequence of Rho-associated protein kinase 2 (O75116 whole entry): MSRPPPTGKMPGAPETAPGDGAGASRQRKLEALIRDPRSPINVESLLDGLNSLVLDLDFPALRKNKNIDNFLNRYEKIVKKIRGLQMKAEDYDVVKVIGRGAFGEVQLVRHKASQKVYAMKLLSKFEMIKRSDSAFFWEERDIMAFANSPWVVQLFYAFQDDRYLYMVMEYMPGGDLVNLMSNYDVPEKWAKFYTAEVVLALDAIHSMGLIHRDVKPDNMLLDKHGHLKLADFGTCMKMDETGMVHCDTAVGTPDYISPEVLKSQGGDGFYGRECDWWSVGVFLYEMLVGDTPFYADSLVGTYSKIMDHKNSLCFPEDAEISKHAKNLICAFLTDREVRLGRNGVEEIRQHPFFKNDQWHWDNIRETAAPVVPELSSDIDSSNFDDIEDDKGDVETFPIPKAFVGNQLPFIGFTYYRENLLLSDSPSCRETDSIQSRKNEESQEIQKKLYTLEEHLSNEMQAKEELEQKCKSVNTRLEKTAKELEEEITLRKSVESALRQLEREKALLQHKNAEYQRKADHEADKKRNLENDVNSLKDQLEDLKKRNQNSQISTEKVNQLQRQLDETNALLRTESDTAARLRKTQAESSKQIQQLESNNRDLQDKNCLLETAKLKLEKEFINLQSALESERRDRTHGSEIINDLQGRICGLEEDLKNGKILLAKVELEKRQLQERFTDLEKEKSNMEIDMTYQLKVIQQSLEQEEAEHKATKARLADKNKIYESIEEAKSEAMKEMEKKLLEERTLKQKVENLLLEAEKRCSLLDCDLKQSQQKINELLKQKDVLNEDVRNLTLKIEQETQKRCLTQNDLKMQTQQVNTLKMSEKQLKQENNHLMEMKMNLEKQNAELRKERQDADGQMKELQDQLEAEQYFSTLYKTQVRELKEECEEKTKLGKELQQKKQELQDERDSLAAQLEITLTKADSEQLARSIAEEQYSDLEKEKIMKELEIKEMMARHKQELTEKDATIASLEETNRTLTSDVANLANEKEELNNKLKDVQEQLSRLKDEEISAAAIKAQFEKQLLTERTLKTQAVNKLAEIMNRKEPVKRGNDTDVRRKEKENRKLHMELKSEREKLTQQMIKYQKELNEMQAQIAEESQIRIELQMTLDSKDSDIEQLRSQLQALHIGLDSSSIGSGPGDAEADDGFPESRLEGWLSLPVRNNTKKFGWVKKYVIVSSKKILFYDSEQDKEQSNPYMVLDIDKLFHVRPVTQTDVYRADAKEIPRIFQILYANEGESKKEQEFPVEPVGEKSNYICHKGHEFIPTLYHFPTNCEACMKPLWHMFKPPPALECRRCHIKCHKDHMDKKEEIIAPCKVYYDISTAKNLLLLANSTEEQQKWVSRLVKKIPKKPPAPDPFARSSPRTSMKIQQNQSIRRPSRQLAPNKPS

SMILES | Kd [1] | Kd [2] | Kd [3] | Kd [4] | Kd (Ephrin type-B receptor 2) | Kd [5] | Kd [6] | Kd [7] | Kd [8]
C[C@@H]1COC(Nc2ccc3ncnc(Nc4ccc(OCc5nccs5)c(Cl)c4)c3c2)=N1 [VARLITINIB] | 0.81 µM (active) | > 30 µM (inactive) | > 30 µM (inactive) | > 30 µM (inactive) | > 30 µM (inactive) | > 30 µM (inactive) | > 30 µM (inactive) | > 30 µM (inactive) | > 30 µM (inactive)
COCCN1CCN(Cc2ccc(-c3n[nH]c4c3C(=O)c3c(NC(=O)NN5CCOCC5)cccc3-4)cc2)CC1 [RGB-286638] | > 30 µM (inactive) | > 30 µM (inactive) | 0.002 µM | 0.515 µM | > 30 µM (inactive) | 0.535 µM (active) | > 30 µM (inactive) | 1.9 µM (active) | > 30 µM (inactive)
C=CC(=O)Nc1cccc(Nc2nc(Nc3ccc(N4CCN(C(C)=O)CC4)cc3OC)ncc2C(F)(F)F)c1 [ROCILETINIB] | > 30 µM (inactive) | > 30 µM (inactive) | 0.651 µM (active) | > 30 µM (inactive) | > 30 µM (inactive) | > 30 µM (inactive) | > 30 µM (inactive) | > 30 µM (inactive) | > 30 µM (inactive)
Cc1ccc(C(=O)Nc2ccc(Oc3cc4cnn(C)c4cc3-c3cn[nH]c3)c(F)c2)c(=O)n1-c1ccc(F)cc1 [MERESTINIB] | > 30 µM (inactive) | > 30 µM (inactive) | > 30 µM (inactive) | > 30 µM (inactive) | > 30 µM (inactive) | > 30 µM (inactive) | > 30 µM (inactive) | > 30 µM (inactive) | > 30 µM (inactive)
Cc1c(Cn2c(C)nc3c(C(=O)O)cc(N4CCOCC4)cc32)cccc1C(F)(F)F [GSK-2636771] | > 30 µM (inactive) | > 30 µM (inactive) | > 30 µM (inactive) | > 30 µM (inactive) | > 30 µM (inactive) | > 30 µM (inactive) | > 30 µM (inactive) | > 30 µM (inactive) | > 30 µM (inactive)
Cn1cc(-c2[nH]c3cc(NC(=O)[C@H](N)C4CCCCC4)cc4c3c2C=NNC4=O)cn1 | > 30 µM (inactive) | > 30 µM (inactive) | > 30 µM (inactive) | > 30 µM (inactive) | > 30 µM (inactive) | 2.19 µM (active) | > 30 µM (inactive) | > 30 µM (inactive) | > 30 µM (inactive)
NC(=O)c1ccc(N(C(N)=O)c2c(F)cccc2F)nc1-c1ccc(F)cc1F [VX-702] | > 30 µM (inactive) | > 30 µM (inactive) | > 30 µM (inactive) | > 30 µM (inactive) | > 30 µM (inactive) | > 30 µM (inactive) | > 30 µM (inactive) | > 30 µM (inactive) | > 30 µM (inactive)
COc1cc2ncnc(Nc3ccc(F)c(Cl)c3)c2cc1NC(=O)/C=C/CN1CCCCC1 [DACOMITINIB ANHYDROUS] | 0.988 µM (active) | > 30 µM (inactive) | > 30 µM (inactive) | > 30 µM (inactive) | > 30 µM (inactive) | > 30 µM (inactive) | > 30 µM (inactive) | > 30 µM (inactive) | > 30 µM (inactive)
S=C(NCc1ccc2c(c1)OCO2)N1CCN(c2ncnc3c2oc2ccccc23)CC1 [AMUVATINIB] | > 30 µM (inactive) | > 30 µM (inactive) | > 30 µM (inactive) | > 30 µM (inactive) | > 30 µM (inactive) | > 30 µM (inactive) | > 30 µM (inactive) | > 30 µM (inactive) | > 30 µM (inactive)
COc1cc(F)c(F)c(Nc2ccc(I)cc2F)c1NS(=O)(=O)C1(C[C@H](O)CO)CC1 [REFAMETINIB] | > 30 µM (inactive) | > 30 µM (inactive) | > 30 µM (inactive) | > 30 µM (inactive) | > 30 µM (inactive) | > 30 µM (inactive) | > 30 µM (inactive) | > 30 µM (inactive) | > 30 µM (inactive)
O[C@H]1CC[C@H](Nc2ncc3nc(Nc4c(F)cc(F)cc4F)n([C@H]4CCOC4)c3n2)CC1 [TANZISERTIB] | > 30 µM (inactive) | > 30 µM (inactive) | > 30 µM (inactive) | > 30 µM (inactive) | > 30 µM (inactive) | > 30 µM (inactive) | > 30 µM (inactive) | > 30 µM (inactive) | > 30 µM (inactive)
C#Cc1cccc(Nc2ncnc3cc4c(cc23)OCCOCCOCCO4)c1 [ICOTINIB] | 2.63 µM (active) | > 30 µM (inactive) | > 30 µM (inactive) | > 30 µM (inactive) | > 30 µM (inactive) | > 30 µM (inactive) | > 30 µM (inactive) | > 30 µM (inactive) | > 30 µM (inactive)
COc1cc2ncnc(Nc3ccc(O)cc3)c2cc1OC [WHI-P131] | 5.94 µM (active) | > 30 µM (inactive) | > 30 µM (inactive) | > 30 µM (inactive) | > 30 µM (inactive) | > 30 µM (inactive) | > 30 µM (inactive) | > 30 µM (inactive) | > 30 µM (inactive)
C=CC(=O)Nc1cc(Nc2nccc(-c3cn(C)c4ccccc34)n2)c(OC)cc1N(C)CCN(C)C [OSIMERTINIB] | > 30 µM (inactive) | > 30 µM (inactive) | > 30 µM (inactive) | > 30 µM (inactive) | > 30 µM (inactive) | > 30 µM (inactive) | > 30 µM (inactive) | > 30 µM (inactive) | > 30 µM (inactive)
FC(F)(F)c1ccc(CNc2ccc(Cc3c[nH]c4ncc(Cl)cc34)cn2)cn1 [PEXIDARTINIB] | > 30 µM (inactive) | > 30 µM (inactive) | > 30 µM (inactive) | > 30 µM (inactive) | > 30 µM (inactive) | > 30 µM (inactive) | > 30 µM (inactive) | > 30 µM (inactive) | > 30 µM (inactive)

— ChEMBL document CHEMBL3991601, “The target landscape of clinical kinase drugs” (Science, 2017)
